In patent US6518272B2, “Cycloalkyl-substituted aryl-piperazines, piperidines and tetrahydropyridines as serotonergic agents” (Wyeth, priority 1998, dated 2003) one finds melting point data, which are given here for eleven molecules.

SMILES strings stand for the structures. Counter-ions that a name gives are not always drawn.

`CN(C(=O)C1(C)CCCCC1)[C@H](CC1CCCCC1)CN1CCN(c2cccc3[nH]ccc23)CC1` (as salt: hydrochloride) [Example 8] returned a melting point of 253 to 254 °C.

`COc1ccccc1C1=CCN(C[C@@H](CC2CCCCC2)NC(=O)C2(C)CCCCC2)CC1` (as salt: hydrochloride) (hydrate or solvate) [Example 21, 1-Methyl-cyclohexanecarboxylic Acid {(1R)-1-Cyclohexylmethyl-2-[4-(2-methoxyphenyl)-3,6-dihydro-2H-pyridin-1-yl]-ethyl}-amide] showed a melting point of 93 to 95 °C.

`COc1ccccc1N1CCN(C[C@@H](CC2CCCCC2)N(C)C(=O)C2(C)CCCCC2)CC1` (as salt: hydrochloride) [Example 4, 1-Methyl-cyclohexanecarboxylic Acid {(1R)-1-Cyclohexylmethyl-2-[4-(2-methoxyphenyl)-piperazin-1-yl]-ethyl}-methyl-amide] registered a melting point of 208 to 210 °C.

Molecule `O=C(N[C@H](CC1CCCCC1)CN1CCN(c2nc3ccccc3s2)CC1)C1CCCCC1` (as salt: hydrochloride) [Example 13, Cyclohexanecarboxylic Acid {(1R)-1-Cyclohexylmethyl-2-[4-(benzothiazol-2-yl)-piperazin-1-yl]-ethyl}-amide] came in with a melting point of 229 to 232 °C.

The molecule `COc1ccccc1C1CCN(C[C@@H](CC2CCCCC2)NC(=O)C(C)(C)C)CC1` (as salt: hydrochloride) (hydrate or solvate) [Example 19, N-{(1R)-1-Cyclohexylmethyl-2-[4-(2-methoxyphenyl)-piperidin-1-yl]-ethyl}-2,2-dimethyl-propionamide] gave a melting point of 97 to 99 °C.

For the molecule `CN(C(=O)C1(C)CCCCC1)[C@H](CC1CCCCC1)CN1CCN(c2cccc3c2OCCO3)CC1` (as salt: hydrochloride) [Example 6, 1-Methyl-cyclohexanecarboxylic Acid {(1R)-1-Cyclohexylmethyl-2-[4-(2,3-dihydro-benzo[1,4]dioxin-5-yl)-piperazin-1-yl]-ethyl}-methyl-amide], the melting point lay in the range of 219 to 220 °C.

On to `COc1ccccc1C1CCN(C[C@@H](CC2CCCCC2)N(C)C(=O)C2(C)CCCCC2)CC1` (as salt: hydrochloride) (hydrate or solvate) [Example 18, 1-Methyl-cyclohexanecarboxylic Acid {(1R)-1-Cyclohexylmethyl-2-[4-(2-methoxypheniyl)-piperidin-1-yl]-ethyl}-methyl-amide], for which the melting point lay within 169 to 171 °C.

Take `COc1ccccc1N1CCN(C[C@@H](CC2CCCCC2)N(C)C(=O)C2CCCCC2)CC1` (as salt: hydrochloride) [Example 3, Cyclohexanecarboxylic Acid {(1R)-1-Cyclohexylmethyl-2-[4-(2-methoxyphenyl)-piperazin-1-yl]-ethyl}-methyl-amide]: the melting point was in the range of 222 to 224 °C.

Molecule `CN(C(=O)C1CCCCC1)[C@H](CC1CCCCC1)CN1CCN(c2cccc3c2OCCO3)CC1` (as salt: hydrochloride) (hydrate or solvate) [Example 5] returned a melting point of 147 to 148 °C.

`O=C(N[C@H](CC1CCCCC1)CN1CCN(c2ncccn2)CC1)C1CCCCC1` (as salt: hydrochloride) [Example 10, Cyclohexanecarboxylic Acid {(1R)-1-Cyclohexylmethyl-2-[4-(pyrimidin-2-yl)-piperazin-1-yl]-ethyl}-amide] gave a melting point of 121 to 123 °C.

The molecule `CN(C(=O)C1CCCCC1)[C@H](CC1CCCCC1)CN1CCN(c2cccc3[nH]ccc23)CC1` (as salt: hydrochloride) (hydrate or solvate) [Example 7, Cyclohexanecarboxylic Acid {(1R)-1-Cyclohexylmethyl-2-[4-(1H-indol-4-yl)-piperazin-1-yl]-ethyl}-methyl-amide] came in with a melting point of more than 260 °C.

The melting point is the temperature, or range, at which the solid turns liquid.
